Measurements from ChEMBL document CHEMBL3507680, “University of Dundee, Gates Library screen for HepG2 cell viability”.

Assay: Human HepG2 cell viability assay in 384 well format
Type: toxicity, cell-based
Parameters: dose 125 nL, time 70.5 hour; cytotoxicity at 70.5 h: concentration not given beside the values
Settings: HepG2 cells, read-out: Inhibition

| Structure (SMILES) | cytotoxicity at 70.5 h [%] |
| --- | --- |
| Nc1ccc(C(=O)N2CCCC(C(=O)CCc3ccccc3)C2)cn1 (stereo not drawn) | -20 |
| Cc1cccnc1NC(=O)CSc1ccc2c(c1)OCCO2 | -9.85 |
| COC(=O)CCN(C)C(=O)c1ccc(-c2cscn2)cc1 | 4.45 |
| Cc1oc(C(=O)O)cc1S(=O)(=O)Nc1cc(Cl)ccc1F | -7.55 |
| Cc1ccnc(C(NC(=O)c2ccc(O)nc2C)C2CC2)n1 (stereo not drawn) | 16.3 |
| O=C(c1coc2ccccc12)N1CCCC1 | -9.29 |
| CCC1=N[C@@]2(CC[C@@H]3CN(Cc4ccc(Cl)cc4)C[C@@H]32)C(=O)N1 | -3.73 |
| CCOCCN1CCC=C(C2c3nc[nH]c3CCN2C(C)=O)C1 (stereo not drawn) | 0.27 |
| CNc1cc(C2CCCN2C(=O)CCc2ccccc2F)ccn1 (stereo not drawn) | -2.87 |
| CCOc1ncccc1CNC(=O)N1CCCC1c1cccs1 (stereo not drawn) | -11.7 |
| Cc1nc(C)n(CC2CCCN(Cc3cccc(F)c3F)C2)n1 (stereo not drawn) | 2.26 |
| Cc1cccc(CN2C[C@@H]3CCCO[C@@H]3[C@H](NS(C)(=O)=O)C2)n1 | -3.48 |
| Cc1nc(COc2ccc(OC(C)C(N)=O)cc2)oc1C (stereo not drawn) | -0.152 |
| CCc1nccn1C1CCCN(C(=O)c2ccc3[nH]cnc3c2)C1 (stereo not drawn) | -5.72 |
| Cc1cc(N2CCC(Cc3ccncc3)C2)ncn1 (stereo not drawn) | -3.38 |
| CCCC(=O)N1C[C@@H]2CCN(c3cnccn3)C[C@@H]2C1 | 8.32 |
| O=S(=O)(N1CCCC1)N1CC[C@H](c2ccccc2)[C@H]2NCCCC[C@H]21 | -2.6 |
| CC(C(=O)NC(N)=O)N(C)CCCc1cc(-c2ccccc2)no1 (stereo not drawn) | -3.63 |
| O=C(NCCCN1CCOCC1)C(OC1CCCC1)c1ccccc1 (stereo not drawn) | -1.75 |
| CC(C)[C@@H]1CN(CC(=O)NCc2ccco2)C[C@H]1NS(=O)(=O)N(C)C | -3.9 |
| CN(Cc1nccn1CC(F)(F)F)C(=O)c1ccc(F)c(F)c1 | -1.82 |
| COc1ncc(CN(CCN(C)C)Cc2ccc(C)s2)cn1 | 12.8 |
| COc1nn(C)c2c1CCCN(C(=O)c1ccc(C)c(F)c1)C2 | -101 |

| Structure (SMILES) | cytotoxicity at 70.5 h [%] |
| --- | --- |
| O=C(Nc1cnccn1)[C@@H]1C[C@H]2OCC[C@H]2N(c2ncc(F)cn2)C1 | 18 |
| CN(C)CC(=O)N1CCc2ncnc(-c3ccsc3)c2CC1 | -0.46 |
| O=C(Nc1ccccc1C(=O)NCCCN1CCOCC1)c1ccco1 | -6.18 |
| CN(Cc1cccc(OC(F)(F)F)c1)C(=O)Cc1ccon1 | -13.6 |
| CC(C)Oc1ccc(C(=O)NCc2ccc3c(c2)CCCN3C)cn1 | -2.36 |
| CC(OCc1ccccc1)C(=O)NC1CCN(CC(N)=O)CC1 (stereo not drawn) | -6.55 |
| CCCSCC(=O)N1C[C@@H](NC(C)=O)[C@H](c2ccc(OC)cc2)C1 | -19.4 |
| Cc1cc(NC(=O)CCN2CCCC2Cn2cccn2)no1 (stereo not drawn) | -6.26 |
| NC(=O)CN1C[C@@H](c2ccccc2F)[C@@]2(CCCCC(=O)N2)C1 | -7.09 |
| COc1ccsc1C(=O)N1CCCC1c1c(C)nn(C)c1OC (stereo not drawn) | -4.7 |
| Cc1ccc(CN(C)Cc2nc3c(cnn3C)c(=O)[nH]2)c(C)c1 | 7.52 |
| O=C1CC(c2ccncc2)C2(CCN(C(=O)c3cccs3)CC2)N1 (stereo not drawn) | 43.8 |
| OCc1ccc(CNc2ccccc2CN2CCC(O)CC2)o1 | -4.84 |
| CCn1cc(CN(C)S(=O)(=O)c2cnn(CC)c2C)c(C)n1 | 5.14 |
| CN(C(=O)NCc1ccsc1)C1CCN(c2ccccc2)C1=O (stereo not drawn) | 0.0689 |
| Cc1ccc2c(c1)C(NC(=O)N(C)C)CC21CCN(C)CC1 (stereo not drawn) | -3.53 |
| CCn1cc(NC(=O)NCc2ccc(CO)c(F)c2)cn1 | -7.1 |
| CN(Cc1ccsc1)C(=O)c1ccc(C2CCCO2)s1 (stereo not drawn) | 30.9 |
| CC(C)C(=O)NC1CCN(Cc2cccc3c2OCCO3)CC1 | -1.98 |
| Brc1ccc(CNCc2nnc3n2CCCCC3)s1 | -16.6 |
| Cc1nc(NS(=O)(=O)c2cc(C)c(Br)cc2C)no1 | -14.1 |
| CCCn1cc(NC(=O)c2ccc(NC(=O)NC3CC3)cc2)ccc1=O | -10.8 |
| CN1CCCCCC1C(=O)N1CCN(c2ccccc2C#N)CC1 (stereo not drawn) | -8.6 |

| Structure (SMILES) | cytotoxicity at 70.5 h [%] |
| --- | --- |
| CCC(C)(C)n1nnnc1C(c1cccs1)N1CCc2ccccc2C1 (stereo not drawn) | 0.836 |
| Cc1ncoc1C(=O)N1CC[C@@H](O)[C@@H](O)[C@H](N2CCC(F)(F)CC2)C1 | -2.42 |
| OC(COCc1ccccc1Cl)CN1CCC(c2ccn[nH]2)CC1 (stereo not drawn) | 1.38 |
| COc1ccc(C(CNC(=O)Nc2cn[nH]c2)N2CCOCC2)cc1 (stereo not drawn) | -4.89 |
| Cc1nn(C)c(Cl)c1C1CCCN1C(=O)c1csnn1 (stereo not drawn) | -4.32 |
| CN(CC1CC1)c1ccc2ccc(C(=O)NCCc3ccccc3)cn12 | -12.6 |
| O=c1c(Cc2ccccc2)c(O)ccn1Cc1cccs1 | 23.3 |
| COC(=O)CN(CC1CCOC1)C1CC1 (stereo not drawn) | -3.42 |
| CC(c1nc(C2CC2)no1)N(C)Cc1ccc2c(c1)OCCO2 (stereo not drawn) | -0.549 |
| N#Cc1ccc(C(=O)N2CCC(c3ncc[nH]3)CC2)cn1 | -7.49 |
| c1cncc(-c2nnn3c2COCC(CNCC2CCOCC2)C3)c1 (stereo not drawn) | 8.92 |
| COCCCNC(=O)c1cc(C(C)C)nc(N2CCCC2)n1 | -10.1 |
| O=C(C1CNCCN1C(=O)CCOc1ccccc1)N1CCCC1 (stereo not drawn) | -1.81 |
| CCSCCC(C)NC(=O)Nc1cccn(C)c1=O (stereo not drawn) | -10 |
| Cc1nccn1-c1ccc(=O)n(CCNC(=O)Cc2ccccc2)n1 | -12.3 |
| CC(CC1CC1)NCCCN1CCCN(C)CC1 (stereo not drawn) | 7.35 |
| Cn1cc(CCC(=O)N2C[C@H]3CC[C@@H]2CN(Cc2ccccc2)C3)cn1 | -5.6 |
| CC(C(=O)NC1CCCCC1)N1CCc2[nH]nc(C(F)(F)F)c2C1 (stereo not drawn) | -7.82 |
| COCCN1CC[C@H]2CN(c3cc(OC)ncn3)C[C@@H]2C1=O | 24.4 |
| Cc1ncc(CNC2CCCN(Cc3noc(C4CC4)n3)C2)s1 (stereo not drawn) | -2.63 |
| O=C(Nc1ccc2c(ccn2CCN2CCOCC2)c1)c1ccccn1 | -3.62 |
| CCc1nc(C2CCCN(C(=O)c3cccc4cn[nH]c34)C2)no1 (stereo not drawn) | 3.52 |
| Cc1cccc(C(=O)N(CC(=O)O)CC(C)C)c1 | 11.7 |

| Structure (SMILES) | cytotoxicity at 70.5 h [%] |
| --- | --- |
| Cc1nc(CNC(=O)NCC(O)c2cccc(Cl)c2)cs1 (stereo not drawn) | 5.52 |
| N#Cc1cccc(C(=O)N2CC[C@H]3[C@H]2CCN3CC2CCOCC2)c1 | 26.3 |
| Cc1nc(C)c(C)c(N2CCC3(CCN(C)C3)C2)n1 (stereo not drawn) | -8.86 |
| CN(C)CCN1CCCC12CCN(C(=O)c1ccncc1)CC2 | -7.81 |
| CCCC(C)CS(=O)(=O)NCCc1csc(N2CCCC2)n1 (stereo not drawn) | -2.73 |
| CC(=O)N1CCN(C(=O)c2cc(-n3cnnn3)ccc2Cl)CC1 | 24.6 |
| CCc1ccc(C2COCCN2C(=O)Nc2ccc(C#N)cc2)o1 (stereo not drawn) | 47.1 |
| N#Cc1nccnc1NC1CCN(c2ccccc2Br)C1 (stereo not drawn) | 11.1 |
| O=C(CC1COCCN1C(=O)c1cscn1)c1ccccc1 (stereo not drawn) | -11.8 |
| CS(=O)(=O)N1CCc2[nH]cnc2C12CCN(C(=O)c1ccc[nH]1)CC2 | -3.3 |
| CCc1nccn1C1CCCN(C(=O)c2cnn(C)c2C2CC2)C1 (stereo not drawn) | -0.779 |
| NC(=O)c1cc2c(nc1Oc1cccc(CN3CCCC3)c1F)CCC2 | -13.8 |
| OC1(CN2CCC(Oc3cccc(C(F)(F)F)c3)CC2)CNCCOC1 (stereo not drawn) | -15.4 |
| CCc1nc(C)ncc1C(=O)N1CC(=O)N(C)c2ccccc21 | -10.1 |
| CC(C)Oc1ccc(CN2CCC(c3n[nH]c4ncccc34)CC2)cc1 | 21.4 |
| Cc1ccc(NC(=O)CC2Cn3ncnc3NC2=O)cc1C (stereo not drawn) | -8.36 |
| CCCNC(=O)c1nn(CC)cc1NC(=O)c1c(C)nn(C)c1C | -11.3 |
| COCCN1CCc2cc(C(=O)O)c(NCC3CC3)nc2CC1 | 22.8 |
| COCC(=O)NC(c1ccc(Cl)cc1)C(F)(F)F (stereo not drawn) | -12.5 |
| COc1ccccc1N1CCN(Cc2nc(C)c(C)o2)CC1 | -8.1 |
| COc1ccc(CN2CCN(C(=O)N(C)C)[C@@H]3CS(=O)(=O)C[C@@H]32)cc1F | 4.21 |
| O=C([C@H]1CC[C@@H]2[C@@H](CCN2c2ncccn2)O1)N1CCCCO1 | -1.66 |
| CC(C)c1nnc(NC(=O)C2CSCN2C(=O)C2CCC2)s1 (stereo not drawn) | -8.18 |

| Structure (SMILES) | cytotoxicity at 70.5 h [%] |
| --- | --- |
| CCc1nc(C2CCCN2C(=O)CCCn2cccn2)no1 (stereo not drawn) | -7.2 |
| CCN(CC)CC1CN(Cc2ccc(C)s2)Cc2nccn2C1 (stereo not drawn) | -7.85 |
| Cc1nnc(CN(Cc2ccco2)Cc2cccc3c2OCO3)n1C | -6.18 |
| O=C(C1CCOCC1)N1CC[C@@](O)(c2ccccc2)[C@H]2CCCC[C@@H]21 | 24.9 |
| Cc1ccc(S(=O)(=O)N2CCC(S(C)(=O)=O)CC2)cc1C | -0.502 |
| CN(C(=O)c1ccncc1)c1nnc(C2CCOC2)s1 (stereo not drawn) | -5.28 |
| Cc1cc(CN2CCOC(CNc3cccnn3)C2)no1 (stereo not drawn) | 2.59 |
| COc1ccc(CNC(=O)NCCc2nc(C)c(C)s2)cn1 | -3.08 |
| CN1CCN(CCCOc2ccccc2CN2C[C@H]3CC[C@H]2C3)CC1 | 17.4 |
| Cc1ccc2c(n1)N(C)CCN(C(=O)C1CC1)C2 | -8.52 |
| CCn1nc(C)c2c1cnn2CC(=O)NC(C)c1cccc(OC)c1 (stereo not drawn) | -15.4 |
| COc1ncc(C2(O)CCN(Cc3ccc(F)c(F)c3)CC2)c(OC)n1 | -3.5 |
| Cc1ccccc1C(=O)N1C[C@@H]2[C@@H](CN(C)CCc3ccccn3)[C@@H]2C1 | -8.54 |
| O=C(NCCO)c1coc(CN2CCN(c3ccccc3F)CC2)n1 | -5.22 |
| Cc1cnc(C(=O)N2CCOCC2C)cn1 (stereo not drawn) | -16.2 |
| O=C(Cn1nc(Br)nc1Br)N1CCCCC1 | -3.74 |
| C1CC(c2noc(C3CC3)n2)N(Cc2nnc(C3CC3)o2)C1 (stereo not drawn) | -7.72 |
| CNc1nc2c(s1)C(c1c(Cl)cccc1Cl)CC(=O)N2 (stereo not drawn) | -15.8 |
| Cn1cnc(S(=O)(=O)NCCCN2CCCC2=O)c1Cl | -2.39 |
| Cc1cc(C)n(CC2CCCN2CCCS(N)(=O)=O)n1 (stereo not drawn) | -8.83 |
| CCCS(=O)(=O)CCN1CCOC(c2ccsc2)C1 (stereo not drawn) | -2.47 |
